Laboratory results as given in patent publication US8197794B2, “Core 2 GlcNAc-T inhibitors” (MS Therapeutics Limited, priority 2003, dated 2012).
Where two headings read alike, the source gives them in different places.

Tests used:
Core 2 GlcNAc-T [1] = biological target: T1, Core 2 GlcNAc-T (Homo sapiens, UniProt Q02742); test: Cell based assay of core 2 GlcNAc-T activity in human leukocytes (U937 cells)
T1 sequence (Q02742 1-428): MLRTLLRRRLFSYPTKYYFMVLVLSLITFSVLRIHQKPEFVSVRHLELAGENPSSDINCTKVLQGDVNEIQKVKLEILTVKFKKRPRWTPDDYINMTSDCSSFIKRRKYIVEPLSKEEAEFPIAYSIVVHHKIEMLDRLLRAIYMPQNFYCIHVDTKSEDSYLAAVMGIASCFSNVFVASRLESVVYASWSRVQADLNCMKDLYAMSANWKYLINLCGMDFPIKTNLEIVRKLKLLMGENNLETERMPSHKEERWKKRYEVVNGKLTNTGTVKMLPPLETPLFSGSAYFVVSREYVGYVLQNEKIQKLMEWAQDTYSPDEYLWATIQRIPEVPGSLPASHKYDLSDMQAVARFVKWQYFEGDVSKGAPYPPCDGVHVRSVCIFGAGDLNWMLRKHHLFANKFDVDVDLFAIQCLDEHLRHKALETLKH
Procedure: (§1) FIG. 17a and FIG. 17b are graphs illustrating the effect of purified trigoneoside IVa, glycoside F, and shatavarin IV on Core 2 GlcNAc-T activity in cell free (FIG. 17a) and cell based (FIG. 17b) assays. In cell free assays heart lysate from BB rats were incubated in the presence, and absence of 20 ng/ml of each compound. After 1 h incubation at 37° C., the activity of core 2 GlcNAc-T was measured, and expressed as pmoles/h/mg protein. The results are the mean of 3-5 separate experiments. In cell based assays human leukocytes (U937 cells) were exposed to 8 pg/ml human recombinant TNF-alpha in the presence and absence of 20 ng/ml of the test compound. After 24 h incubation, the activity of core 2 GlcNAc-T was measured, and expressed as pmoles/h/mg protein.
(§2) For Glucose induction of Core 2 GlcNAc-T leukocytes (U937 cells) are exposed to normal glucose (5.8 mM) or high glucose (15 mM) for 24 hours at 37° C. After incubation, the cells maybe lysed and frozen at −20° C. until used for the measurement of core 2 GlcNAc-T. or used immediately. For TNF-α induction of core 2 GlcNAc-T, Human leukocytes(U937 cells) are exposed to human recombinant TNF-alpha (8 pg/ml) in the presence and absence of test compounds After 24 h incubation, the activity of core 2 GlcNAc-T was measured, and expressed as pmoles/h/mg protein. For cell free assay of core 2 GlcNAc-T heart lysates from either from TNF-alpha over expressing transgenic mice (female, B6.5JL-Tg (TNF) supplied by Taconic-M+B, Bomholtveg 10, 8680 Ry, Denmark) or from BB rats (Festing 1979) are exposed to various concentrations of test compound for 1 h at 37° C. Activity of core 2
(§3) To measure core 2 GlcNAc-T activity, leukocytes were washed in PES, frozen and lysed in 0.9% Triton X-100 at 0° C. The activity of core 2 GlcNAc-T was measured as described previously (Chibber, Diabetes 49, 1724-1730 (2000)). Briefly, the reaction was performed in a reaction mixture containing 50 mM 2(N-morpholino)ethanesulfonic acid (MES, Sigma, Dorset, UK), pH 7.0, 1 mM UDP-6 [′H]-N-acetylglucosamine (16,000 dpm/nmol, NEN Life Science Products, Hounslow, UK), 0.1 M GlcNAc (Sigma, Dorset, Okla.), 1 mM Galβ1-3GalNAcα-p-nitrophenol (Sigma, Dorset, UK) as substrate, and […] of cell lysate (100-200 μg protein) for a final volume of […]. After incubating the mixture for 1 hour at 37° C., the reaction was terminated with 1 ml of ice-cold distilled water and processed on a C18 Sep-Pak column (Waters-Millipore, Watford, UK). After washing the column with 20 ml of distilled water, the product was eluted with 5 ml of methanol. The radioactivity of the samples was counted in a liquid scintillation β-counter (LKB-Wallac, London, UK). Endogenous activity of core 2 GlcNAc-T was measured in the absence of the added acceptor. The specific activity was expressed as pmoles/h/mg of cell protein. In each case, the protein concentration was determined with BioRad protein assay (BioRad, Hertfordshire, UK).

core 2 GlcNAc-T [2] = biological target: T2, core 2 GlcNAc-T (Mus musculus, UniProt Q09324); test: Cell free assay of core 2 GlcNAc-T on heart lysates of TNF-α mice; type: biochemical
T2 construct: heart lysates from either from TNF-alpha over expressing transgenic mice; tissue Taconic-M+B (mice) B6.5JL-Tg (TNF); host or cells: heart lysate of TNF-alpha over-expressing transgenic mice
T2 sequence (Q09324 1-428): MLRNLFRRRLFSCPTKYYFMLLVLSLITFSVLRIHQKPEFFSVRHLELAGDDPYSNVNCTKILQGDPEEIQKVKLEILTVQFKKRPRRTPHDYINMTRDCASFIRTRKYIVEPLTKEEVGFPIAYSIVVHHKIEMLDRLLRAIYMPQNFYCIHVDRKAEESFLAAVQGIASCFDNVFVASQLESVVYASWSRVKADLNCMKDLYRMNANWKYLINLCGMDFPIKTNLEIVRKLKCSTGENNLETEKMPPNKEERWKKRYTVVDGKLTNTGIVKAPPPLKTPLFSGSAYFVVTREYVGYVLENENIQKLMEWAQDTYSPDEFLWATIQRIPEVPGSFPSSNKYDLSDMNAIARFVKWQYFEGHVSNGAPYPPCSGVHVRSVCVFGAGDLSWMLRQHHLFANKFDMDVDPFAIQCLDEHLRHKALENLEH
Procedure: as §2
(§4) GlcNAc-T is measured, and expressed as pmoles/h/mg protein.
as §3

core 2 GlcNAc-T [3] = biological target: core 2 GlcNAc-T (Rattus norvegicus, UniProt Q64165); test: Cell free assay of core 2 GlcNAc-T on heart lysates of BB rats; type: biochemical
Procedure: as §1
For Glucose induction of Core 2 GlcNAc-T leukocytes (U937 cells) are exposed to normal glucose (5.8 mM) or high glucose (15 mM) for 24 hours at 37° C. After incubation, the cells maybe lysed and frozen at −20° C. until used for the measurement of core 2 GlcNAc-T. or used immediately. For TNF-α induction of core 2 GlcNAc-T, Human leukocytes(U937 cells) are exposed to human recombinant TNF-alpha (8 pg/ml) in the presence and absence of test compounds After 24 h incubation, the activity of core 2 GlcNAc-T was measured, and expressed as pmoles/h/mg protein. […]
as §4
To measure core 2 GlcNAc-T activity, leukocytes were washed in PES, frozen and lysed in 0.9% Triton X-100 at 0° C. The activity of core 2 GlcNAc-T was measured as described previously (Chibber, Diabetes 49, 1724-1730 (2000)). […] The radioactivity of the samples was counted in a liquid scintillation β-counter (LKB-Wallac, London, UK). Endogenous activity of core 2 GlcNAc-T was measured in the absence of the added acceptor. The specific activity was expressed as pmoles/h/mg of cell protein. In each case, the protein concentration was determined with BioRad protein assay (BioRad, Hertfordshire, UK).

Core 2 GlcNAc-T [4] = biological target: T1, Core 2 GlcNAc-T; test: Core 2 GlcNAc-T inhibition, assay system not given; type: biochemical
Procedure: as §3

[5] = read-out: Approximate Ic50 values, Cell based assay
[6] = heart lysates of TNF-α mice, read-out: Approximate Ic50 values, Cell free assay

Chain of core 2 GlcNAc-T (Rattus norvegicus, UniProt Q64165) (Q64165 entry or part of it): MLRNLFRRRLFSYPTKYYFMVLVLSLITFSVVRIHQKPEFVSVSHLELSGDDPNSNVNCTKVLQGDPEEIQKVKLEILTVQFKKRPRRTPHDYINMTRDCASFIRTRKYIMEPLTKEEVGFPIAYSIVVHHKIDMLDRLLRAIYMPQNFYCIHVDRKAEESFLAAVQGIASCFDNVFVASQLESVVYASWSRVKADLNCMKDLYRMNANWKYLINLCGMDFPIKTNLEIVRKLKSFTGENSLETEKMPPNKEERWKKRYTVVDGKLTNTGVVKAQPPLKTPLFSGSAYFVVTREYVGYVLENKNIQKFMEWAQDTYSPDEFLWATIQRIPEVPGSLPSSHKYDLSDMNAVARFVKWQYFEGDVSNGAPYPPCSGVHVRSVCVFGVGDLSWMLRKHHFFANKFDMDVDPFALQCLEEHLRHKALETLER

Row | SMILES | IC50 (Core 2 GlcNAc-T [1]; [5]) | IC50 (core 2 GlcNAc-T [2]; [6]) | other results
1 | C[C@@H]1CC[C@@]2(OC1)O[C@H]1C[C@H]3[C@@H]4CC=C5C[C@@H](O[C@@H]6O[C@H](CO)[C@@H](O)[C@H](O[C@@H]7O[C@H](CO)[C@@H](O)[C@H](O)[C@H]7O)[C@H]6O[C@@H]6O[C@@H](C)[C@H](O)[C@@H](O)[C@H]6O)CC[C@]5(C)[C@H]4CC[C@]3(C)[C@H]1[C@@H]2C [Gracillin, (3β,25R)-spirost-5-en-3-yl O-6-deoxy-α-L-mannopyranosyl-(1→2)-O-[β-D-glucopyranosyl-(1→3)]-β-D-glucopyranoside] | 2.5 nM | 4.5 nM | 
2 | C[C@@H](CC[C@@]1(O)O[C@H]2C[C@H]3[C@@H]4CC[C@@H]5C[C@@H](O[C@@H]6O[C@H](CO)[C@@H](O[C@@H]7O[C@H](CO)[C@@H](O)[C@H](O)[C@H]7O)[C@H](O)[C@H]6O[C@@H]6O[C@@H](C)[C@H](O)[C@@H](O)[C@H]6O)CC[C@]5(C)[C@H]4CC[C@]3(C)[C@H]2[C@@H]1C)CO[C@@H]1O[C@H](CO)[C@@H](O)[C@H](O)[C@H]1O [Shatavarin I, (3β,5β,22α,25S)-26-(β-D-glucopyranosyloxy)-22-hydroxyfurostan-3-yl O-6-deoxy-α-L-mannopyranosyl-(1-42)-O-[β-D-glucopyranosyl-(1→4)]-β-D-glucopyranoside] | 0.75 nM | 1 nM | 
3 | CC(CCC1(O)OC2CC3C4CC=C5CC(OC6OC(CO)C(OC7OC(CO)C(O)C(O)C7O)C(O)C6OC6OC(C)C(O)C(O)C6O)CCC5(C)C4CCC3(C)C2C1C)COC1OC(CO)C(O)C(O)C1O [Glycoside F, (3β,25R)-26-(β-D-glucopyranosyloxy)-22-hydroxyfurost-5-en-3-yl O-6-deoxy-α-L-mannopyranosyl-(1→2)-O-[β-D-glucopyranosyl-(1→4)]-β-D-glucopyranoside] |  |  | inhibition at 0.022 µM (core 2 GlcNAc-T [3]; at 22 nM in BB rat heart lysate): 100%
4 | C[C@H](CC[C@@]1(O)O[C@H]2C[C@H]3[C@@H]4CC=C5C[C@@H](O[C@@H]6O[C@H](CO)[C@@H](O)[C@H](O[C@@H]7O[C@H](CO)[C@@H](O)[C@H](O)[C@H]7O)[C@H]6O[C@@H]6O[C@@H](C)[C@H](O)[C@@H](O)[C@H]6O)CC[C@]5(C)[C@H]4CC[C@]3(C)[C@H]2[C@@H]1C)CO[C@@H]1O[C@H](CO)[C@@H](O)[C@H](O)[C@H]1O [Protogracillin] | 0.25 nM | 3 nM | 
5 | CC1=C(CC[C@@H](C)CO[C@@H]2O[C@H](CO)[C@@H](O)[C@H](O)[C@H]2O)O[C@H]2C[C@H]3[C@@H]4CC=C5C[C@@H](O[C@@H]6O[C@H](CO)[C@@H](O[C@@H]7O[C@@H](C)[C@H](O)[C@@H](O)[C@H]7O)[C@H](O)[C@H]6O[C@@H]6O[C@@H](C)[C@H](O)[C@@H](O)[C@H]6O)CC[C@]5(C)[C@H]4CC[C@]3(C)[C@@H]12 [Pseudoprotodioscin, (3β,22α,25R)-26-(β-D-glucopyranosyloxy)-furosta-5,20(22)-dien-3-yl O-6-deoxy-α-L-mannopyranosyl (1→2)-046-deoxy-α-L-mannopyranosyl-(1→4)]-[3-D-Glucopyranoside] | 50 nM | 35 nM | 
6 | C[C@H](CC[C@@]1(O)O[C@H]2C[C@H]3[C@@H]4CC=C5C[C@@H](O[C@@H]6O[C@H](CO)[C@@H](O[C@@H]7O[C@@H](C)[C@H](O)[C@@H](O)[C@H]7O)[C@H](O)[C@H]6O[C@@H]6O[C@@H](C)[C@H](O)[C@@H](O)[C@H]6O)CC[C@]5(C)[C@H]4CC[C@]3(C)[C@H]2[C@@H]1C)CO[C@@H]1O[C@H](CO)[C@@H](O)[C@H](O)[C@H]1O [Protodioscin] |  |  | IC50 (core 2 GlcNAc-T [3]; heart lysates of BB rats, read-out: Approximate Ic50 values, Cell free assay): 20 nM; IC50 (core 2 GlcNAc-T [3]; system not restated, values as in Table 9 cell free assay, read-out: IC50): ~20 nM; activity (Core 2 GlcNAc-T [4]; sample prepared from Tribulus terrestris, 97% pure, concentrations of 50 μM): no activity; inhibition of Core 2 GlcNAc-T compared to controls (Core 2 GlcNAc-T [1]; 20 ng/ml, TNF-α treated Human leukocytes (U937 cells)): approximately 98.5%
7 | C[C@@H](CC[C@@]1(O)O[C@H]2C[C@H]3[C@@H]4CC=C5C[C@@H](O[C@@H]6O[C@H](CO)[C@@H](O[C@@H]7O[C@@H](C)[C@H](O)[C@@H](O)[C@H]7O)[C@H](O)[C@H]6O[C@@H]6O[C@@H](C)[C@H](O)[C@@H](O)[C@H]6O)CC[C@]5(C)[C@H]4CC[C@]3(C)[C@H]2[C@@H]1C)CO[C@@H]1O[C@H](CO)[C@@H](O)[C@H](O)[C@H]1O [Trigonelloside C] |  |  | inhibition of Core 2 GlcNAc-T (Core 2 GlcNAc-T [4]; at 2.5 nM, preparation 98.2% pure): 69%
8 | C[C@@H](CCC1(O)O[C@H]2C[C@H]3[C@@H]4CC=C5C[C@@H](O[C@@H]6O[C@H](CO)[C@@H](O[C@@H]7O[C@H](CO)[C@@H](O)[C@H](O)[C@H]7O)[C@H](O)[C@H]6O[C@@H]6O[C@@H](C)[C@H](O)[C@@H](O)[C@H]6O)CC[C@]5(C)[C@H]4CC[C@]3(C)[C@H]2[C@@H]1C)CO[C@@H]1O[C@H](CO)[C@@H](O)[C@H](O)[C@H]1O (stereo partly drawn) [Trigoneoside IVa, (3β,25 S)-26-(β-D-glucopyranosyloxy)-22-hydroxyfurost-5-en-3-yl O-6-deoxy-α-L-mannopyranosyl-(1→2)-O-[β-D-glucopyranosyl-(1→4)]-β-D-glucopyranoside] | 75 nM | 0.9 nM | IC50 (core 2 GlcNAc-T [2]; in cell free systems, read-out: approximate IC50): 0.25 to 0.9 nM
9 | C[C@@H]1CC[C@@]2(OC1)O[C@H]1C[C@H]3[C@@H]4CC=C5C[C@@H](O[C@@H]6O[C@H](CO)[C@@H](O[C@@H]7O[C@@H](C)[C@H](O)[C@@H](O)[C@H]7O)[C@H](O)[C@H]6O[C@@H]6O[C@@H](C)[C@H](O)[C@@H](O)[C@H]6O)CC[C@]5(C)[C@H]4CC[C@]3(C)[C@H]1[C@@H]2C [Dioscin, (3(3,25R)-spirost-5-en-3-yl O-6-deoxy-α-L-mannopyranosyl-(1→2)-046-deoxy-α-L-mannopyranosyl-(1→4)]-β-D-glucopyranoside] |  |  | IC50 (Core 2 GlcNAc-T [1]): 75 nM; IC50 (core 2 GlcNAc-T [2]): 40 nM
